PMC5461819 (Peptides, 2015)
Several values for one entry are separate records, joined by “and”; a condition that tells them apart may be missing. Equal values may be shown once. Entries after “also recorded” stand apart in the source; their conditions may differ. Read-outs that look alike come from different tables or passages of the source.

Assays:
rat NMBR [1] = molecular target: T1, rat NMBR (Rattus norvegicus, UniProt P24053); test: [3H]Inositol phosphate generation, rNMBR/BALB cells; assay type: cell-based
T1 sequence (P24053 1-390): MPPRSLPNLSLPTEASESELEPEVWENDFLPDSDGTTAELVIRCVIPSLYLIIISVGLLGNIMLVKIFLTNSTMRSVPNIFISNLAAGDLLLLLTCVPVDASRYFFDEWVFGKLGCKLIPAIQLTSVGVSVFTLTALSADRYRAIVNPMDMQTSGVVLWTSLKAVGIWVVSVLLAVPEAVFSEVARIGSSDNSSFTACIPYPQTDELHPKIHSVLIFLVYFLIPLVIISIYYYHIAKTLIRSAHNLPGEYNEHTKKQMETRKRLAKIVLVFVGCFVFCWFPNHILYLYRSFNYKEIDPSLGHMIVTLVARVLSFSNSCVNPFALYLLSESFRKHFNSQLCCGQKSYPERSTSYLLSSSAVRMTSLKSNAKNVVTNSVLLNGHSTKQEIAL

rat BRS-3 = molecular target: T2, rat BRS-3 (Rattus norvegicus, UniProt Q8K418); test: [3H]Inositol phosphate generation, rBRS-3/BALB cells; assay type: cell-based
T2 sequence (Q8K418 1-399): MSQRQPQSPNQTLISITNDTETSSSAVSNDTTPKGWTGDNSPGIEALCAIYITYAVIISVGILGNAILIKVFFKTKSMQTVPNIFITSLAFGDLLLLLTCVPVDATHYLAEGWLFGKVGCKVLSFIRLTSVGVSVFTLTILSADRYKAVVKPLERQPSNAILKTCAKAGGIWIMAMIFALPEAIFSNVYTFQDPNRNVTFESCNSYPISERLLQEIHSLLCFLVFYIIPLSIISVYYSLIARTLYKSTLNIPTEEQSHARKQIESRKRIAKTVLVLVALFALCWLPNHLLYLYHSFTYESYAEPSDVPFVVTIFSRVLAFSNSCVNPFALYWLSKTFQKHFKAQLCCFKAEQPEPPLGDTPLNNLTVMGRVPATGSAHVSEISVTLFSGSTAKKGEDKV

human NMBR [2] = molecular target: T3, human NMBR (Homo sapiens, UniProt P28336); test: Binding studies, hNMBR/BALB cells
T3 sequence (P28336 whole entry): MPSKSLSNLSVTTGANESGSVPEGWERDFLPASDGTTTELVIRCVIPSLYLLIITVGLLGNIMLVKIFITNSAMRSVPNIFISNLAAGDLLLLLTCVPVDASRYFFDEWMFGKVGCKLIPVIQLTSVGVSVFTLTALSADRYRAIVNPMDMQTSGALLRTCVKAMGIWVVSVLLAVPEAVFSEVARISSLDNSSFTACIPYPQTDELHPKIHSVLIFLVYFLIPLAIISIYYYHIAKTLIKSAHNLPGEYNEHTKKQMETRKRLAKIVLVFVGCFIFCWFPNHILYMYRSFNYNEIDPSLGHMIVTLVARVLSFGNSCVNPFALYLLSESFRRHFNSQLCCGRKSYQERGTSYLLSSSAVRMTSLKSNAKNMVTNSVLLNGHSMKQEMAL

human GRPR [3] = molecular target: T4, human GRPR (Homo sapiens, UniProt P30550); test: Binding studies, hGRPR/BALB cells
T4 sequence (P30550 whole entry): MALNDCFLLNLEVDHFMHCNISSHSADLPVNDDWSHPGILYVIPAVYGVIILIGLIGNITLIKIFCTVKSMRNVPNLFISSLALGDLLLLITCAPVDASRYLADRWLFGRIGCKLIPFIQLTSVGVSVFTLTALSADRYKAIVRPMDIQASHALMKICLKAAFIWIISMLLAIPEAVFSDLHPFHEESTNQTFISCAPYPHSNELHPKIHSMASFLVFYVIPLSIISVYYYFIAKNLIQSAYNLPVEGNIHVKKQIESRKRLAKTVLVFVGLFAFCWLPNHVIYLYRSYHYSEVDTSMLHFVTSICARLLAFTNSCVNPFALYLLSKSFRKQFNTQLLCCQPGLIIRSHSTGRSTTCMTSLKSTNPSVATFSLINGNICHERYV

human BRS-3 [4] = molecular target: T5, human BRS-3 (Homo sapiens, UniProt P32247); test: [3H]Inositol phosphate generation; assay type: cell-based
T5 sequence (P32247 1-399): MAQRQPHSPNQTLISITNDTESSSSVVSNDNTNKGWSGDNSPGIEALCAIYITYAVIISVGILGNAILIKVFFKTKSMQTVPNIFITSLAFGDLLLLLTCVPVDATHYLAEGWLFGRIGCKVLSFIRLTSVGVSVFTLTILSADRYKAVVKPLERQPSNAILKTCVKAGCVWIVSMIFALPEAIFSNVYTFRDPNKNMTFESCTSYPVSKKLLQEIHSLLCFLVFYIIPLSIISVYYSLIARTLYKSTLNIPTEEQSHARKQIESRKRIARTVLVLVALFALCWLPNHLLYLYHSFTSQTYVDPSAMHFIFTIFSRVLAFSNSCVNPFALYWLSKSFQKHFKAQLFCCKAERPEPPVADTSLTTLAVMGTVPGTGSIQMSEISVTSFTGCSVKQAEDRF

human NMBR [5] = molecular target: T3, human NMBR; test: [3H]Inositol phosphate generation, hNMBR/BALB cells; assay type: cell-based
mouse GRPR [6] = molecular target: T6, mouse GRPR (Mus musculus, UniProt P21729); test: [3H]Inositol phosphate generation, mGRPR/BALB cells; assay type: cell-based
T6 sequence (P21729 whole entry): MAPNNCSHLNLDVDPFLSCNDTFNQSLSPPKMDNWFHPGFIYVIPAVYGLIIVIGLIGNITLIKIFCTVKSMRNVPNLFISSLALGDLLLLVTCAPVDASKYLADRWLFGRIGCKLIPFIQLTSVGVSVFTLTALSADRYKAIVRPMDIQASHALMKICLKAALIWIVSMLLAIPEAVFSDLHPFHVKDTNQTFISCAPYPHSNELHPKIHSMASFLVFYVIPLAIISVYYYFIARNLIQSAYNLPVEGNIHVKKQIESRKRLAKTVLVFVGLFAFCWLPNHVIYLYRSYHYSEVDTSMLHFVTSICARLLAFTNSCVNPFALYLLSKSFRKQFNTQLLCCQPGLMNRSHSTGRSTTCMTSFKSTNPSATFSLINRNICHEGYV

human BRS-3 [7] = molecular target: T5, human BRS-3; test: Binding studies, inhibition of 125I-[D-Tyr6,β-Ala11,Phe13,Nle14]Bn-
human GRPR [8] = molecular target: T4, human GRPR; test: [3H]Inositol phosphate generation, hGRPR/BALB cells; assay type: cell-based
rat GRPR [9] = molecular target: T7, rat GRPR (Rattus norvegicus, UniProt P52500); test: Binding studies, rGRPR/AR42J cells
T7 sequence (P52500 whole entry): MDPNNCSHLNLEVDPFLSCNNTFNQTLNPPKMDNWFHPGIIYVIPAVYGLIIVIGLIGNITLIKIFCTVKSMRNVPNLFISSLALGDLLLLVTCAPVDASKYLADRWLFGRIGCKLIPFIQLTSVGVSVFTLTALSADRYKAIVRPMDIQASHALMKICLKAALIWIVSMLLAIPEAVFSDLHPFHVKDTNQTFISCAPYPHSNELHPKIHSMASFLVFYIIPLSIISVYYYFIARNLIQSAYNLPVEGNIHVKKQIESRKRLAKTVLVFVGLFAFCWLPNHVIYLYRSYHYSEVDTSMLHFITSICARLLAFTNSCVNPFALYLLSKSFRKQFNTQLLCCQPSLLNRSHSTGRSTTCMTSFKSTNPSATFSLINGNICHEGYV

rat NMBR [10] = molecular target: T1, rat NMBR; test: Binding studies, rNMBR/BALB cells
rat GRPR [11] = molecular target: T7, rat GRPR; test: [3H]Inositol phosphate generation, rGRPR/AR42J cells; assay type: cell-based
mouse BRS-3 = molecular target: T8, mouse BRS-3 (Mus musculus, UniProt O54798); test: [3H]Inositol phosphate generation, mBRS-3/BALB cells; assay type: cell-based
T8 sequence (O54798 1-399): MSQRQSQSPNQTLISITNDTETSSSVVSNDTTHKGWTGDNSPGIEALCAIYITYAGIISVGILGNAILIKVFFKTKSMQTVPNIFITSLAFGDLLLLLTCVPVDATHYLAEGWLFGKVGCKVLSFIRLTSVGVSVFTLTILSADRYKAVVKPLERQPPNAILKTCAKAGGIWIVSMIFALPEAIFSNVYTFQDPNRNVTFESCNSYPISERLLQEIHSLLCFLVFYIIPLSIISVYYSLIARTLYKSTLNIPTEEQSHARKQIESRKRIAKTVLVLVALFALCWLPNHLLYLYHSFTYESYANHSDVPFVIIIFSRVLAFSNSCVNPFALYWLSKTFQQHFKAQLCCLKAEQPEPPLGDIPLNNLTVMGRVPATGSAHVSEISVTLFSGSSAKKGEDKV

mouse GRPR [12] = molecular target: T6, mouse GRPR; test: Binding studies, mGRPR/BALB cells
mouse NMBR [13] = molecular target: T9, mouse NMBR (Mus musculus, UniProt O54799); test: [3H]Inositol phosphate generation, mNMBR/BALB cells; assay type: cell-based
T9 sequence (O54799 1-390): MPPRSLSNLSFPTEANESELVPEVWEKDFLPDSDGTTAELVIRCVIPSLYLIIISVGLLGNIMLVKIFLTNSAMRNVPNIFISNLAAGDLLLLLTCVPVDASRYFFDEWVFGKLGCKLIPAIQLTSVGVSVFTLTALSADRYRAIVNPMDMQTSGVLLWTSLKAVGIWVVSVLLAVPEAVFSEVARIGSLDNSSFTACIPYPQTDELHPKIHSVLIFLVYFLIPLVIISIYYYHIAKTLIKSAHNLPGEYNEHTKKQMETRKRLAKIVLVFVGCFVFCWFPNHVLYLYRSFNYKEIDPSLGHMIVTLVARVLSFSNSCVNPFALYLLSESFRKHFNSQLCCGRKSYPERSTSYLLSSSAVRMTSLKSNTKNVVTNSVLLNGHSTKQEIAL

mouse NMBR [14] = molecular target: T9, mouse NMBR; test: Binding studies, mNMBR/BALB cells

Row | Structure (SMILES) | EC50 (rat BRS-3) | IC50 (human NMBR [2]) | IC50 (human GRPR [3]) | EC50 (human BRS-3 [4]) | EC50 (mouse GRPR [6]) | IC50 (human BRS-3 [7]) | EC50 (human GRPR [8]) | IC50 (rat GRPR [9]) | IC50 (rat NMBR [10]) | EC50 (mouse BRS-3) | IC50 (mouse GRPR [12]) | IC50 (mouse NMBR [14]) | further results
1 | O[C@@](Cc1nc(CC2(C(F)(F)F)CC2)c[nH]1)(c1ccc(-n2cccn2)cc1)C(F)(F)F [MK-5046, (2S)-1,1,1-trifluoro-2-[4-(1H-pyrazol-1-yl)phenyl]-3-(4-[[1-(trifluoromethyl)cyclopropyl]methyl]-1H-imidazol-2-yl)propan-2-ol] | 0.23 ± 0.08 nM | > 3000 nM | > 3000 nM | 8.7 ± 0.47 nM | > 3000 nM | 102 ± 2 nM | > 3000 nM | > 3000 nM | > 3000 nM | 5.24 ± 0.36 nM | > 3000 nM | > 3000 nM | EC50 (rat NMBR [1]): > 3000 nM; maximal stimulation of [3H]IP (rat BRS-3; rBRS-3/BALB cells, 1 μM, n=7): 21,812 ± 1,721 dpm; more potent in rBRS-3 than in hBRS-3 (rat BRS-3; rBRS-3 versus hBRS-3): 38 fold; more potent in rBRS-3 than in mBRS-3 (rat BRS-3; rBRS-3 versus mBRS-3): 22 fold; efficacy for activating PLC (rat BRS-3; rat BRS-3 cells): full efficacious; also recorded: fully efficacious; increase on activating PLC (rat BRS-3; rat BRS-3 containing cells): 5.8 fold; IC50/ EC50 hBRS-3/BALB (human BRS-3 [4]; binding IC50 over [3H]IP EC50, hBRS-3/BALB cells, measure of receptor spareness): 11.7 and 11.72; maximal stimulated [3H]IP value (human BRS-3 [4]; hBRS-3/BALB cells, 1 μM, n=13): 70,268 ± 4,912 dpm; efficacy for activating PLC (human BRS-3 [4]; human BRS-3 cells): full efficacious; also recorded: fully efficacious; increase on activating PLC (human BRS-3 [4]; human BRS-3 containing cells): 3.8 fold; EC50 (human NMBR [5]): > 3000 nM; EC50 (rat GRPR [11]): > 3000 nM; maximal stimulation of [3H]IP (mouse BRS-3; mBRS-3/BALB cells, 1 μM, n=3): 62,992 ± 9,298 dpm; efficacy for activating PLC (mouse BRS-3; mouse BRS-3 cells): full efficacious; also recorded: fully efficacious; increase on activating PLC (mouse BRS-3; mouse BRS-3 containing cells): 3.9 fold; EC50 (mouse NMBR [13]): > 3000 nM
2 | CSCC[C@H](NC(=O)[C@H](Cc1ccccc1)NC(=O)[C@H](Cc1c[nH]cn1)NC(=O)CNC(=O)[C@@H](NC(=O)[C@H](C)NC(=O)[C@H](Cc1c[nH]c2ccccc12)NC(=O)[C@H](CC(C)C)NC(=O)[C@H](CC(N)=O)NC(=O)CN)[C@@H](C)O)C(N)=O [NMB, neuromedin B] | > 3000 nM | 0.6 ± 0.02 nM | 31.5 ± 2.4 nM | > 3000 nM | 23 ± 8 nM | > 3000 nM | 530 ± 23 nM | 80 ± 5 nM | 1.21 ± 0.15 nM | > 3000 nM | 170 ± 5 nM | 0.6 ± 0.02 nM | EC50 (rat NMBR [1]; EC50 Rat NMBR rNMBR/BALB, [3H]IP production, 60 min, 37°C): 1.6 nM and 1.59 nM; EC50 (human NMBR [5]; EC50 Human NMBR hNMBR/BALB, [3H]IP production, 60 min, 37°C): 2.5 nM and 2.52 nM; lower affinity for rGRPR than for rNMBR (rat GRPR [9]; rat receptors): 66 fold; EC50 (rat GRPR [11]; EC50 Rat GRPR rGRPR/AR42J, [3H]IP production, 60 min, 37°C): 17 nM; EC50 (mouse NMBR [13]; EC50 Mouse NMBR mNMBR/BALB, [3H]IP production, 60 min, 37°C): 4.7 nM and 4.73 nM
